Results reported in patent US11149035B2, “Chemical compounds as H—PGDS inhibitors” (GlaxoSmithKline Intellectual Property Development Limited, priority 2017, dated 2021).

Tested on: prostaglandin D2 generation following 48/80-induced mast cell degranulation
Assay: In vivo mast cell activation (compound 48/80-induced degranulation, PGD2 in peritoneal lavage by LC/MS/MS)
Design: species or system mouse
Details: normal C57Bl6/N mice; oral 0.1-10 mg/kg ~1 hour prior to 48/80 i.p.; peritoneal lavage 7 minutes afterwards; FIG. 2
Procedure: Mice were randomized by body weight into 8 groups (n=8): Vehicle (0.5% HPML with 0.1% Tween80)+phosphate buffered saline (PBS), vehicle+compound 48/80 (0.75 mg/ml) and compound 48/80+Example 21 at various doses ranging from 0.1 mg/kg to 10 mg/kg.
C57BL mice were dosed orally with vehicle, or Example 21 at 0.1, 0.3, 1, 3, & 10 mg/kg. One hour later, blood samples were withdrawn via tail snip for measurement of drug levels, and mice were then terminally anesthetized with 2% isoflurane and given an intraperitoneal injection of 0.2 mL PBS or compound 48/80 solution (0.75 mg/mL, Sigma), followed by gentle massage of the abdomen. Mice were kept under anesthesia for 7 minutes prior to euthanasia. […]
Samples were thawed at room temperature and vortex-mixed. […] The plate was vortex-mixed for 30 seconds at 1000 rpm and analyzed by LC/MS/MS.
The analytical system consisted of a CTC HTS PAL autoinjector (Leap, Carrboro, N.C.), an Agilent 1290 Infinity binary pump and thermostated column compartment (Agilent Technologies, Santa Clara, Calif.) and an AB Sciex QTRAP 5500 mass spectrometer (AB Sciex, Framingham, Mass.). […] The analytes were detected by multiple reaction monitoring (MRM) in negative mode using Turbolon spray with the transitions of m/z 351/271 amu for PGD2/PGE2 and m/z 360/280 amu for PGD2-d9/PGE2-d9. […]

For CC(C)(O)[C@H]1CC[C@H](NC(=O)c2cnc3nc(C4CC4)ccc3c2)CC1 [Example 21, 7-Cyclopropyl-N-((trans)-4-(2-hydroxypropan-2-yl)cyclohexyl)-1,8-naphthyridine-3-carboxamide], the “48/80-induced PGD2 generation in lavage fluid” value was “prevents 48/80-induced PGD2 generation”.
